{
  "source": "patent US8758767B2",
  "about": "“Antigens targeted by prevalent pathogennic T cells in type 1 diabetes and uses thereof” (Albert Einstein College of Medicine of Yeshiva University, priority 2003, dated 2014)",
  "key": {"H-2Db": {"target": "T1, H-2Db (Mus musculus, UniProt P01899)", "T1 sequence (P01899 25-362)": "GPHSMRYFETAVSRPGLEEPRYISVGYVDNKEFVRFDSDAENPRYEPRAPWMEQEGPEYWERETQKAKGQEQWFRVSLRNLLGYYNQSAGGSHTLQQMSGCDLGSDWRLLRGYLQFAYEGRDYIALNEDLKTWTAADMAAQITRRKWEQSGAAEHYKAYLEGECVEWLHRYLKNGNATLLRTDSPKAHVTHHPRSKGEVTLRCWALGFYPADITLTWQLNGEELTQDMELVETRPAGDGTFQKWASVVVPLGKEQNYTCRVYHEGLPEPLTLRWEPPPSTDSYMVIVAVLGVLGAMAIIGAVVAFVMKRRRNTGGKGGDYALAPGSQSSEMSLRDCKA", "T1 sequence (P01887 21-119 partner)": "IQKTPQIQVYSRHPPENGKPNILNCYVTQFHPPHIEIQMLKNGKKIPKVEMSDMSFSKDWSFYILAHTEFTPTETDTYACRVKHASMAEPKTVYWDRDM", "experiment": "Presentation of IGRP peptide by MHC class I molecule"}, "[1]": {"tested_on": "T-cells from the islets of 12-week-old female NOD mice", "experiment": "Interferon-γ ELISpot of T-cells cultured from NOD islets (Example 4)", "type": "cell-based, mouse", "protocol": "Using procedures described in Example 1, we have cultured T-cells from the islets of 12-week-old female NOD mice. T-cells were assayed for recognition of several different IGRP peptides by interferon-γ ELISpot."}, "female NOD mice": {"tested_on": "female NOD mice", "experiment": "Repeated peptide treatment of female NOD mice, diabetes development and islet-associated CD8+ T-cells", "type": "in vivo, mouse", "protocol": "(§1) Cohorts of 3-to-4 week-old female NOD mice were injected with 1-100 μg of peptide in PBS intraperitoneally. This was repeated every 2 weeks until the 7-8th week, and every 3 weeks thereafter. Mice were monitored for development of hyperglycemia until at least the 28th week of age. The 8.3-CD8+ T-cell tolerogenic activity of APLs was determined by treating 8-15 wk-old 8.3-NOD mice with one i.p. injection of 100 μg of peptide. […] Mice were sacrificed a week after treatment, and their spleens analyzed for presence of 8.3-CD8+ T-cells by flow cytometry.\nWe next investigated whether the anti-diabetogenic activity of the above APLs was a function of “avidity”, as defined not only by the affinity of individual peptide/MHC complexes for specific TCRs, but also by the absolute number of peptide/MHC complexes that are available for recognition (i.e. dose of peptide). This was done by treating cohorts of female NOD mice with repeated injections of TUM (negative control), NRP-I4, NRP-A7 and NRP-V7 (in PBS) over a wide dose range, and by following the mice for development of diabetes (FIG. 7A, top). Starting at 3-4 weeks of age, mice received one injection of peptide i.p. every 2 (first three doses) or 3 weeks after initiation of treatment. Mice were sacrificed at diabetes onset or at the end of the follow-up period (28-32 weeks), to investigate the effects of treatment on the size and tetramer-binding avidity of the islet-associated IGRP206-214-reactive CD8+ T-cell subpopulation (FIG. 7A, bottom)."}, "8.3-CD8+ T-cells": {"tested_on": "8.3-CD8+ T-cells", "experiment": "Proliferation and cytokine secretion of naive splenic 8.3-CD8+ T-cells with peptide-pulsed NOD splenocytes", "type": "cell-based, mouse", "conditions": "FIG. 5, peptide 0.01-1 μM", "protocol": "Naïve or NRP-A7-differentiated (see below) splenic CD8+ T-cells from 8.3-NOD mice (2×10^4/well) were incubated, in duplicate, with peptide-pulsed (0.01, 0.1 and 1 μM), γ-irradiated (3,000 rad) NOD splenocytes (10^5/well) for 3 days at 37° C. in 5% CO2. Cultures were pulsed with 1 μCi of (^3H)-thymidine during the last 18 hours of culture and harvested.\nNaïve splenic CD8+ T-cells from 8.3-NOD mice (2×10^4/well) were incubated with peptide-pulsed (0.001, 0.01, 0.1, 1 and/or 10 μM) γ-irradiated NOD splenocytes (10^5/well) in 96-well plates for 48 hours at 37° C. Short-term islet-derived T-cell lines from peptide-treated or unmanipulated NOD mice (adjusted at 2×10^4 CD8+ T-cells/well) were tested the same way, but using 10 μM of peptide. The supernatants (100 μl/well) were assayed in duplicate for IL-2, IL-4, and/or IFN-γ content by ELISA using commercially available kits (Genzyme Diagnostics, Cambridge, Mass.)."}, "[2]": {"tested_on": "8.3-CD8+ splenocytes of 8.3-NOD mice", "experiment": "Tolerogenic activity of APLs in 8.3-NOD mice", "type": "in vivo, mouse", "conditions": "single injection 100 μg in PBS, analysis 7 days later", "protocol": "as §1"}, "AI15.F5 TCR": {"tested_on": "AI15.F5 TCR", "experiment": "TCR transfectant peptide recognition, IL-2 release (58 α−β− cells, RMA-S/K^d presenters)", "type": "cell-based, mouse", "conditions": "FIG. 2", "description": "(§2) T cell receptors from the previously isolated NOD-derived β cell-autoreactive class I MHC-restricted T cell clones AI4, AI12.B1.1, AI12.B1.2, AI12.B1.3, AI15.A10, AI15.F5 (DiLorenzo et al., 1998), and 8.3 (Verdaguer et al., 1997) were expressed in the TCR^− T cell hybridoma 58α^−β^− (engineered to express the TCR ζ chain and CD8αβ and provided by H.-C. Chang, Dana Farber, Boston, Mass., USA) as described (Serreze et al., 2001). TCR expression was verified by flow cytometric analysis of growing clones using an antibody to CD3ε (145-2C11). RMA-S/K^d cells incubated overnight at 28° C. were used to present exogenously added synthetic peptides at concentrations as indicated in the figures. Peptide recognition by the TCR transfectants was measured by IL-2 production as previously described (Serreze et al., 2001)."}, "AI12.B1.3 TCR": {"tested_on": "AI12.B1.3 TCR", "experiment": "TCR transfectant peptide recognition, IL-2 release (58 α−β− cells, RMA-S/K^d presenters)", "type": "cell-based, mouse", "conditions": "FIG. 2", "description": "as §2"}},
  "data": [
    {"sequence": "CALTSLTTM [IGRP296-304]", "values": [
      {"measurement": "presentation by MHC class I molecule", "setting": "H-2Db", "value": "is presented by the MHC class I molecule H-2Db"}
    ]},
    {"sequence": "FLWSVFWLI [IGRP152-160]", "values": [
      {"measurement": "T-cell reactivity by interferon-γ ELISpot", "setting": "[1]", "value": "Reactivity was found"}
    ]},
    {"sequence": "KYNKANVFL [NRP-V7, reference compound]", "values": [
      {"measurement": "anti-diabetogenic activity", "setting": "female NOD mice; any dose", "value": "not significantly protective"},
      {"measurement": "protection from diabetes by chronic treatment (discussion summary)", "setting": "female NOD mice; intermediate doses NRP-A7, high doses NRP-I4, low or high doses NRP-V7, high doses IGRP206-214", "value": "only afforded marginal protection from disease"},
      {"measurement": "NRP-V7-reactive CD8+ cells in the islets", "setting": "female NOD mice; over a range of doses", "value": "almost completely devoid"},
      {"measurement": "agonistic activity on 8.3-CD8+ T-cells", "setting": "8.3-CD8+ T-cells", "value": "superior agonistic activity"},
      {"measurement": "8.3-CD8+ splenocytes after treatment", "setting": "[2]", "value": "fewer 8.3-CD8+ splenocytes"},
      {"measurement": "recognition by AI15.F5 (IL-2 release)", "setting": "AI15.F5 TCR", "value": "responded"},
      {"measurement": "recognition by AI12.B1.3 (IL-2 release)", "setting": "AI12.B1.3 TCR", "value": "recognized"}
    ]}
  ]
}
